Drawing on PubChem BioAssay AID1259411 (Chemical Carcinogenesis Research Information System (CCRIS), 2018), this text covers carcinogen call for 8 molecules.

Calls of active or inactive are those of the source. The rule behind the calls is not given here.

For the data set, the system named is rodent carcinogenicity bioassays, tumor incidence. Description: CCRIS carcinogenicity studies. The procedure, abridged: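 NCI-built, expert-reviewed records of carcinogenicity and related test outcomes (mutagenicity, tumor promotion/inhibition) compiled from published and report sources, historical span 1985-2011, not updated.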

Take `CCC(C)(CC)c1cc(NC(=O)c2c(OC)cccc2OC)on1`: the carcinogen call is, setting by setting: (Species: Mouse, Strain/Sex: B6C3F1/Male (60/Group), Route: Oral, Dose: 0, 100, 1000, 12,500 ppm of 85% isoxaben (plus 10.5% closely related isomers) in diet for 2 yr, study duration 2 yr, Dose: 0, 100, 1000, 12,500 ppm of 85% isoxaben (plus 10.5% closely related isomers) in diet for 2 yr, study duration 2 yr, Tumor Site: Type of Lesion: Liver: Hepatocellular adenomas (increased incidence and multiplicity at 12,500 ppm)) “active; positive”; (Species: Rat, Strain/Sex: Fischer 344/Female (60/Group), Route: Oral, Dose: 0, 125, 1250, 12,500 ppm of 85% isoxaben (plus 10.5% closely related isomers) in diet for 2 yr, study duration 2 yr, Dose: 0, 125, 1250, 12,500 ppm of 85% isoxaben (plus 10.5% closely related isomers) in diet for 2 yr, study duration 2 yr) “inactive; negative”; (Species: Rat, Strain/Sex: Fischer 344/Male (60/Group), Route: Oral, Dose: 0, 125, 1250, 12,500 ppm of 85% isoxaben (plus 10.5% closely related isomers) in diet for 2 yr, study duration 2 yr, Dose: 0, 125, 1250, 12,500 ppm of 85% isoxaben (plus 10.5% closely related isomers) in diet for 2 yr, study duration 2 yr, Tumor Site: Type of Lesion: Adrenal gland: pheochromocytoma (highest dose)) “active; positive”.
Take `Oc1ccc(O)c(-c2ccccc2)c1`: the carcinogen call was “inactive; negative” (Species: MOUSE, Strain/Sex: CD-1/FEMALE, Route: DERMAL, Dose: 0, 10 MG IN DMSO 5 D/WK FOR 40 WK (STUDY DURATION: 40 WK)) and “inactive; negative” (Species: RAT, Strain/Sex: F344/FEMALE, Route: INTRAVESICULAR, Dose: 0, 1% IN 0.2 ML SALINE 2/WK FOR 5 WK (STUDY DURATION: 36 WK)).
As to `Clc1nc(Cl)nc(Nc2ccccc2Cl)n1`, the carcinogen call by setting is: (Species: MOUSE, Strain/Sex: B6C3F1/FEMALE, Route: ORAL, Dose: 0, 500, 1000 PPM IN DIET, Dose: 0, 500, 1000 PPM IN DIET) “inactive; negative”; (Species: MOUSE, Strain/Sex: B6C3F1/MALE, Route: ORAL, Dose: 0, 500, 1000 PPM IN DIET, Dose: 0, 500, 1000 PPM IN DIET) “inactive; negative”; (Species: Mouse, Strain/Sex: CD-1/Female, Route: Oral, Dose: 0, 50, 250, 1250 ppm in feed for 2 yrs, Dose: 0, 50, 250, 1250 ppm in feed for 2 yrs) “inactive; negative; purity 93.5%”; (Species: Mouse, Strain/Sex: CD-1/Male, Route: Oral, Dose: 0, 50, 250, 1250 ppm in feed for 2 yrs, Dose: 0, 50, 250, 1250 ppm in feed for 2 yrs) “inactive; negative; purity 93.5%”; (Species: RAT, Strain/Sex: F344/FEMALE, Route: ORAL, Dose: 0, 500, 1000 PPM IN DIET, Dose: 0, 500, 1000 PPM IN DIET) “inactive; negative”; (Species: RAT, Strain/Sex: F344/MALE, Route: ORAL, Dose: 0, 500, 1000 PPM IN DIET, Dose: 0, 500, 1000 PPM IN DIET) “inactive; negative”. In addition, the carcinogen call runs as follows: (Species: Rat, Strain/Sex: Sprague Dawley/Female, Route: Oral, Dose: 0, 50, 330, 2000 ppm in feed for 104 wks, Dose: 0, 50, 330, 2000 ppm in feed for 104 wks) “inactive; negative; purity 93.5%”; (Species: Rat, Strain/Sex: Sprague Dawley/Male, Route: Oral, Dose: 0, 50, 330, 2000 ppm in feed for 104 wks, Dose: 0, 50, 330, 2000 ppm in feed for 104 wks) “inactive; negative; purity 93.5%”.
For `CC(=O)OCN(CC(C)C)N=O`, the carcinogen call (Species: RAT, Strain/Sex: F344/FEMALE, Route: SUBCUTANEOUS, Dose: 6.6 MG/KG 1/WK FOR 10 WK, Tumor Site: Type of Lesion: INJECTION SITE: MALIGNANT FIBROUS HISTIOCYTOMA) is “active; positive”.
`CCCCN(CCCC)N=O`: the carcinogen call by setting is: (Species: GUINEA PIG, Route: ORAL, Tumor Site: Type of Lesion: LIVER) “active; positive”; (Species: HAMSTER, Route: GAVAGE, Tumor Site: Type of Lesion: LUNG, RESPIRATORY TRACT, TRACHEA, FORESTOMACH, Tumor Site: Type of Lesion: LUNG, RESPIRATORY TRACT, TRACHEA, FORESTOMACH) “active; positive”; (Species: HAMSTER, Route: INTRAPERITONEAL, Tumor Site: Type of Lesion: RESPIRATORY TRACT) “active; positive”; (Species: HAMSTER, Route: SUBCUTANEOUS, Tumor Site: Type of Lesion: TRACHEA, URINARY BLADDER, FORESTOMACH, RESPIRATORY TRACT, Tumor Site: Type of Lesion: TRACHEA, URINARY BLADDER, FORESTOMACH, RESPIRATORY TRACT) “active; positive”; (Species: MOUSE, Route: INTRAVENOUS, Tumor Site: Type of Lesion: HEMATOPOIETIC SYSTEM (LEUKEMIA)) “active; positive”; (Species: MOUSE, Route: ORAL, Tumor Site: Type of Lesion: ESOPHAGUS, FORESTOMACH, LIVER, URINARY BLADDER, Tumor Site: Type of Lesion: ESOPHAGUS, FORESTOMACH, LIVER, URINARY BLADDER) “active; positive”. For the same molecule, the carcinogen call runs as follows: (Species: MOUSE, Route: SUBCUTANEOUS, Tumor Site: Type of Lesion: URINARY BLADDER, LUNG) “active; positive”; (Species: RABBIT, Route: SUBCUTANEOUS, Tumor Site: Type of Lesion: URINARY BLADDER) “active; positive”; (Species: RAT, Route: ORAL, Tumor Site: Type of Lesion: ESOPHAGUS, LIVER, URINARY BLADDER, Tumor Site: Type of Lesion: ESOPHAGUS, LIVER, URINARY BLADDER) “active; positive”; (Species: RAT, Route: SUBCUTANEOUS, Tumor Site: Type of Lesion: URINARY BLADDER, LUNG) “active; positive”.
On to `CC(/C=C/C=C(\C)C(=O)O[C@@H]1O[C@H](CO[C@@H]2O[C@H](CO)[C@@H](O)[C@H](O)[C@H]2O)[C@@H](O)[C@H](O)[C@H]1O)=C\C=C\C=C(C)\C=C\C=C(/C)C(=O)O[C@@H]1O[C@H](CO[C@@H]2O[C@H](CO)[C@@H](O)[C@H](O)[C@H]2O)[C@@H](O)[C@H](O)[C@H]1O`, for which the carcinogen call by setting is: (Species: MOUSE, Strain/Sex: C57BL/FEMALE, Route: ORAL, Dose: 0, 0.2, 0.8% IN DRINKING WATER FOR 95 WK (STUDY DURATION: 95 WK), Dose: 0, 0.2, 0.8% IN DRINKING WATER FOR 95 WK (STUDY DURATION: 95 WK)) “inactive; negative”; (Species: MOUSE, Strain/Sex: C57BL/MALE, Route: ORAL, Dose: 0, 0.2, 0.8% IN DRINKING WATER FOR 95 WK (STUDY DURATION: 95 WK), Dose: 0, 0.2, 0.8% IN DRINKING WATER FOR 95 WK (STUDY DURATION: 95 WK)) “inactive; negative”.
On to `CCNC(=O)N(C)N=O`, for which the carcinogen call runs as follows: (Species: RAT, Strain/Sex: F344/FEMALE, Route: GAVAGE, Dose: 0, 20, 40 UMOL/WK IN CORN OIL/ETHYL ACETATE (2: 1) FOR 30 WK (LOW DOSE) OR 15 WK (HIGH DOSE) FOR TOTAL DOSES OF 0, 0.6;, Dose: 0, 20, 40 UMOL/WK IN CORN OIL/ETHYL ACETATE (2: 1) FOR 30 WK (LOW DOSE) OR 15 WK (HIGH DOSE) FOR TOTAL DOSES OF 0, 0.6;, Tumor Site: Type of Lesion: NERVOUS SYSTEM: TUMOR, THYMUS: TUMOR) “active; positive”; (Species: RAT, Strain/Sex: F344/FEMALE, Route: ORAL, Dose: 0, 20, 40 UMOL/WK IN DRINKING WATER FOR 30 WK FOR TOTAL DOSES OF 0, 0.6, 1.2 MMOL (STUDY DURATION: LIFETIME), Dose: 0, 20, 40 UMOL/WK IN DRINKING WATER FOR 30 WK FOR TOTAL DOSES OF 0, 0.6, 1.2 MMOL (STUDY DURATION: LIFETIME), Tumor Site: Type of Lesion: NERVOUS SYSTEM: TUMOR, KIDNEY: TUMOR) “active; positive”; (Species: RAT, Strain/Sex: F344/MALE, Route: GAVAGE, Dose: 0, 20, 40 UMOL/WK IN CORN OIL/ETHYL ACETATE (2: 1) FOR 30 WK FOR TOTAL DOSES OF 0, 0.6, 1.2 MMOL (STUDY DURATION: LIFETI, Dose: 0, 20, 40 UMOL/WK IN CORN OIL/ETHYL ACETATE (2: 1) FOR 30 WK FOR TOTAL DOSES OF 0, 0.6, 1.2 MMOL (STUDY DURATION: LIFETI, Tumor Site: Type of Lesion: NERVOUS SYSTEM: TUMOR, TESTIS: MESOTHELIOMA) “active; positive”; (Species: RAT, Strain/Sex: F344/MALE, Route: ORAL, Dose: 0, 20, 40 UMOL/WK IN DRINKING WATER FOR 30 WK FOR TOTAL DOSES OF 0, 0.6, 1.2 MMOL (STUDY DURATION: LIFETIME), Dose: 0, 20, 40 UMOL/WK IN DRINKING WATER FOR 30 WK FOR TOTAL DOSES OF 0, 0.6, 1.2 MMOL (STUDY DURATION: LIFETIME), Tumor Site: Type of Lesion: LUNG: TUMOR, NERVOUS SYSTEM: TUMOR) “active; positive”.
For the molecule `CC(C)(C)c1cc(O)c(C(C)(C)C)cc1O`, the carcinogen call (Species: HAMSTER, Strain/Sex: SYRIAN/MALE, Route: ORAL, Dose: 1% IN DIET FOR 24 WK (STUDY DURATION: 24 WK), Tumor Site: Type of Lesion: FORESTOMACH: PAPILLOMA) is “active; positive”.
